According to US20250114367A1, “METHOD OF TREATING HAIR LOSS DISORDERS” (Sun Pharmaceutical Industries, Inc., priority 2023, published 2025):
“And” between values parts separate entries of the source, which are not always exact repeats. Equal entries are not always repeated.

Assays:
[1] = tested on: adult subjects with moderate to severe AA; test: Phase III trial: Brigham Eyebrow Tool for Alopecia (BETA); assay type: in vivo, human
Protocol: The BETA is a clinician-rated scale developed by dermatologists at Brigham and Women's Hospital that assesses the total eyebrow hair present (Tkachenko, E, et al., Brigham Eyebrow Tool for Alopecia: A Reliable Assessment of Eyebrow Alopecia Areata, Journal of Investigative Dermatology Symposium Proceedings (2020) 20, S41-S44). The BETA is calculated based on hair density (range 0 to 3) and surface area of each individual eyebrow. The BETA score is the sum of the right and left eyebrow scores (range 0 (absent) to 6). An expert panel of certified raters at Brigham and Women's Hospital performed central readings based on photographs of the eyebrows provided by the study sites and determined a score for each subject with eyebrow involvement following each visit where an assessment of eyebrow hair presence was assessed. The BETA was performed at baseline, Week 12, and Week 24. If a subject was unable to attend an in-person clinic visit due to COVID-19, the BETA may not have been performed due to the inability to take photographs of the eyebrows.
A Phase III trial was conducted to assess the efficacy and safety of CTP-543 in adult subjects with moderate to severe AA. Approximately 440 adult male and female subjects 18 to 65 years of age, inclusive, with moderate to severe AA participated in the study. Subjects with definitive diagnosis of AA, and at least 50% hair loss, as defined by a SALT score ≥50, who met all of the inclusion criteria and none of the exclusion criteria participated in the study.
The Screening Period lasted up to 28 days prior to initiation of study drug. […] Randomization was stratified by scalp hair loss into 1 of the following 2 categories: 1) partial scalp hair loss (SALT ≥50 and <95), 2) complete or near complete scalp hair loss (SALT ≥95). […]

[2] = tested on: subjects with AA; test: Open-label extension (OLE) studies: SALT score over time; assay type: in vivo, human; settings: for percentage of subjects with a SALT score of ≤20: out to Week 52, pooled interim analysis
Protocol: The SALT score is calculated for a patient/subject by measuring the percentage of hair loss in each of the 4 areas of the scalp and adding the total to achieve a composite score (referred to herein as an absolute SALT score). Hair regrowth is reflected by a decrease in the SALT score. For example, no hair on the scalp would have a SALT score of 100 (i.e., an absolute SALT score) while complete hair regrowth would be a SALT score of 0 (i.e., an absolute SALT score).
Subjects completing 24 weeks of treatment with […] 8 mg twice daily in the Phase III trial were eligible to continue treatment in an open label extension trial. Following 52 additional weeks of treatment with […]™ 8 mg twice daily clinical response rates continued to increase with approximately 74% of the 80 subjects on 8 mg twice daily for 76 weeks achieving SALT ≤20.
The qualifying clinical trials including the following: 1. NCT03137381; 2. NCT03811912; 3. NCT03941548; 4. NCT04784533; 5. NCT04518995; and 6. NCT04797650 (all available a at https://clinicaltrials.gov).
The OLE Efficacy Population is defined as all subjects who received at least one dose of deuruxolitinib and had at least one post-baseline SALT assessment in OLE. The data analyses include subjects' data from the qualifying trial. Missing SALT scores were not imputed. The number of subjects decreases over time due to missing data, patient discontinuations, or subjects not yet at the later timepoints. Any SALT data after a qualifying dose change in the OLE was censored for all figures included here, except those showing the overall treatment sequence. A “qualifying dose change” referred to herein can be placebo in any qualifying trial to any dose of deuruxolitinib in the OLE (includes subjects who switched doses), or any dose of deuruxolitinib in a qualifying trial to any dose of deuruxolitinib in the OLE. Various analyses using SALT scores were conducted to best estimate the overall long-term effect of deuruxolitinib considering the issues with dose changes and decreasing patient numbers over time. “Any Dose” analysis tracks all active subjects over time pooled across the two doses. “As Observed” analysis censors subjects at the time of dose adjustment or study discontinuation. “LOCF” (last observation carried forward) analysis utilizes the last SALT score before dose change and carries it forward for all other timepoints up to 52 weeks.

## [2H]C1([2H])C([C@@H](CC#N)n2cc(-c3ncnc4[nH]ccc34)cn2)C([2H])([2H])C([2H])([2H])C1([2H])[2H] [CTP-543, (R)-3-(4-(7H-pyrrolo[2,3-d]pyrimidin-4-yl)-1H-pyrazol-1-yl)-3-(cyclopentyl-2,2,3,3,4,4,5,5-d8) propanenitrile]
[1]; Week 12, 8 mg BID
  BETA score, LS mean change from baseline: 0.8
[1]; Week 12, 12 mg BID
  BETA score, LS mean change from baseline: 0.8
[1]; Week 24, 8 mg BID
  BETA score, LS mean change from baseline: 1.1
[1]; Week 24, 12 mg BID
  BETA score, LS mean change from baseline: 1.4
[2]; 8 mg BID in OLE, placebo in the earlier studies
  pooled mean SALT score: 30.4
[2]; 8 mg BID in the OLE without a qualifying dose change, 282 of 283 responders
  OLE responders who maintained treatment response in the OLE: 99.6%
[2]; 12 mg BID in OLE, placebo in the earlier studies
  pooled mean SALT score: 43.0
[2]; 52 weeks, 8 mg BID in OLE, 8 mg of deuruxolitinib in the earlier studies
  pooled mean SALT score: 25.6
[2]; 52 weeks, 8 mg BID or 12 mg BID in OLE, dosed with deuruxolitinib in the earlier studies
  pooled mean SALT score: 31.7
[2]; 52 weeks, 8 mg BID or 12 mg BID in OLE, placebo in the earlier studies
  pooled mean SALT score: 43.6
[2]; 52 weeks, 12 mg BID in OLE, 12 mg of deuruxolitinib in the earlier studies
  pooled mean SALT score: 27.7
[2]; 80 subjects on 8 mg twice daily for 76 weeks (24 weeks Phase III + 52 weeks open label extension)
  subjects achieving SALT ≤20: approximately 74%
[2]; OLE at Week 68, any dose (including switched doses), listed as deuruxolitinib
  proportion of participants achieving SALT ≤20: 62.6% and 63%
[2]; Week 68, 8 mg BID
  proportion of participants achieving SALT ≤20 (FIG. 13A): > 80%
[2]; Week 68, 8 mg BID/8 mg BID group, As observed, 179/256
  patients achieving SALT 10: 69.9%
[2]; Week 68, 8 mg BID/8 mg BID group, LOCF, 213/521
  patients achieving SALT 10: 40.9%
[2]; Week 68, 8 mg BID, As Observed (AO), listed as deuruxolitinib
  proportion of participants achieving SALT ≤20: 76.6% and 77%
[2]; Week 68, 8 mg BID, LOCF
  proportion of participants achieving SALT ≤20: 48.8%
[2]; Week 68, 12 mg BID, As Observed (AO), listed as deuruxolitinib
  proportion of participants achieving SALT ≤20: 66.7% and 67%
[2]; Week 68, 12 mg BID, LOCF
  proportion of participants achieving SALT ≤20: 60.9%
[2]; Week 68, placebo/8 mg BID group, As observed, 39/59
  patients achieving SALT 10: 66.1%
[2]; Week 68, placebo/8 mg BID group, LOCF, 41/122
  patients achieving SALT 10: 33.6%
[2]; established in the Qualifying Studies, any dose
  proportion of participants achieving SALT ≤20: 34.9%
[2]; out to 68 weeks, any dose in Qualifying Study and OLE, n=836, baseline 86.8 (n=984)
  Mean SALT score: 26.8
[2]; 8 mg twice per day in the OLE, listed as deuruxolitinib
  percentage of subjects with a SALT score of ≤20: 63.6% and 64%
[2]; 12 mg twice per day in the OLE, listed as deuruxolitinib
  percentage of subjects with a SALT score of ≤20: 62.1% and 62%
[2]; any dose in the OLE (including switched doses), listed as deuruxolitinib
  percentage of subjects with a SALT score of ≤20: 57.1% and 57%
